The record followed here is ChEMBL document CHEMBL6074678, “Selectively Antagonizing the NOD1-Mediated Inflammatory Signaling Pathway Mitigates the Gastric Inflammation Induced by Helicobacter pylori Infection” (J Med Chem, 2024).

In series [1] the target is T1, Nucleotide-binding oligomerization domain-containing protein 1 (Mus musculus, UniProt Q8BHB0).
T1 sequence (Q8BHB0 whole entry): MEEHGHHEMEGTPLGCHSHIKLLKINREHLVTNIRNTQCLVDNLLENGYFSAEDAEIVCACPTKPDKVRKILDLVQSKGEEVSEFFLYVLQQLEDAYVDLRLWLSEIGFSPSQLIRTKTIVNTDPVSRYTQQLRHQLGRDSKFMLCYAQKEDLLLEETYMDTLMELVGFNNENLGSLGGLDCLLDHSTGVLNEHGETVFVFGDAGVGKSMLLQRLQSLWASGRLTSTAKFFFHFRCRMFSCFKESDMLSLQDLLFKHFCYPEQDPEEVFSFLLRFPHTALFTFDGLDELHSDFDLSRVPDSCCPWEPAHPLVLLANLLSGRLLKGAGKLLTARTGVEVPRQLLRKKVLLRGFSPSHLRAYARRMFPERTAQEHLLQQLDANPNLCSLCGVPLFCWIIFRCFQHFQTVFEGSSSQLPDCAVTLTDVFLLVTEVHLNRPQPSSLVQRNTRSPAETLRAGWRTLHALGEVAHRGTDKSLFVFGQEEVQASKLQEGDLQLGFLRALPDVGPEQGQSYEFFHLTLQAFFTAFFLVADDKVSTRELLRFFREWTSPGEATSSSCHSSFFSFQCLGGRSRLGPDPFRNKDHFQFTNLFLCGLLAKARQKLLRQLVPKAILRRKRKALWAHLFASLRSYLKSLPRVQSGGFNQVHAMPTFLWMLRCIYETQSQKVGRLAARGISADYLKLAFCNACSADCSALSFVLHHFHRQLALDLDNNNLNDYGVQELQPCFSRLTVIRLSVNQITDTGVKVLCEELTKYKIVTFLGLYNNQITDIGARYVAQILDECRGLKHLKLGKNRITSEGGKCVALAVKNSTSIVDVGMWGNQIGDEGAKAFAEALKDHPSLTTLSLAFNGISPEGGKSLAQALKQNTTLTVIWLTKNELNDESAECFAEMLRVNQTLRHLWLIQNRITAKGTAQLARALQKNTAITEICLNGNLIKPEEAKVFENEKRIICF
The series is described as follows: Antagonist activity at mouse NOD1 expressed in HEK-Blue cells assessed as decrease in SEAP secretion incubated for 3 hrs followed by C12-iE-DAP stimulation for 20 hrs by spectrophotometry. Format: cell-based, HEK-Blue mNOD1.

Series [2] addresses T2, Nucleotide-binding oligomerization domain-containing protein 1 (Homo sapiens, UniProt Q9Y239).
T2 sequence (Q9Y239 whole entry): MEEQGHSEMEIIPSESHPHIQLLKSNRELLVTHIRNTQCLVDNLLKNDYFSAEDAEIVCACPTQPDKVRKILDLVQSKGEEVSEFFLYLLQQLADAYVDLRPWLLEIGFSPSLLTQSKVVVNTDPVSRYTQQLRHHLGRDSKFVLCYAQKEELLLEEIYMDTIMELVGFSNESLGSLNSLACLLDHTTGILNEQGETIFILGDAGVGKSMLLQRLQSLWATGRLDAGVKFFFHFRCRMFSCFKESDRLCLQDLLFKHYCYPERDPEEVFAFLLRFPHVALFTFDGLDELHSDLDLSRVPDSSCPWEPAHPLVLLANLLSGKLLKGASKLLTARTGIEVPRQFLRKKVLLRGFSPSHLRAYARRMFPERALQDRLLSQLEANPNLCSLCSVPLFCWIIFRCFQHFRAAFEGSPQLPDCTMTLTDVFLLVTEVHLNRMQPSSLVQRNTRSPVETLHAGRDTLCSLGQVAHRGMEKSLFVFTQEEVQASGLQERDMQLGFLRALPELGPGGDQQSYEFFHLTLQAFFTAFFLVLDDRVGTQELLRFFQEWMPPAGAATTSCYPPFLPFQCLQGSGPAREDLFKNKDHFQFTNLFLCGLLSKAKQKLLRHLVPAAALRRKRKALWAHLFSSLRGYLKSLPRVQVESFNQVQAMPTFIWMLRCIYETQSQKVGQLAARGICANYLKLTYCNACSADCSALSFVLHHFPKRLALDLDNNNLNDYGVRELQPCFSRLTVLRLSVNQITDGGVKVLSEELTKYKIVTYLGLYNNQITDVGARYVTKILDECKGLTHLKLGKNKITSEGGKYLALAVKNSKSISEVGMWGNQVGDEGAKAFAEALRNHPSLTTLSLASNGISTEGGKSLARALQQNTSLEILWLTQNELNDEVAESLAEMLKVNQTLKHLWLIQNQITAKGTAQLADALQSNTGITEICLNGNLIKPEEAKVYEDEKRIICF
In words: Antagonist activity at human NOD1 expressed in HEK-Blue cells assessed as decrease in SEAP secretion incubated for 3 hrs followed by C12-iE-DAP stimulation for 20 hrs by spectrophotometry. The class given is cell-based, HEK-Blue hNOD1.

For series [3], the target named is Toll-like receptor 4 (Homo sapiens) (UniProt O00206). In words: Inhibition of human TLR4 at 1 uM relative to control.
Chain of Toll-like receptor 4 (Homo sapiens) (O00206 whole entry): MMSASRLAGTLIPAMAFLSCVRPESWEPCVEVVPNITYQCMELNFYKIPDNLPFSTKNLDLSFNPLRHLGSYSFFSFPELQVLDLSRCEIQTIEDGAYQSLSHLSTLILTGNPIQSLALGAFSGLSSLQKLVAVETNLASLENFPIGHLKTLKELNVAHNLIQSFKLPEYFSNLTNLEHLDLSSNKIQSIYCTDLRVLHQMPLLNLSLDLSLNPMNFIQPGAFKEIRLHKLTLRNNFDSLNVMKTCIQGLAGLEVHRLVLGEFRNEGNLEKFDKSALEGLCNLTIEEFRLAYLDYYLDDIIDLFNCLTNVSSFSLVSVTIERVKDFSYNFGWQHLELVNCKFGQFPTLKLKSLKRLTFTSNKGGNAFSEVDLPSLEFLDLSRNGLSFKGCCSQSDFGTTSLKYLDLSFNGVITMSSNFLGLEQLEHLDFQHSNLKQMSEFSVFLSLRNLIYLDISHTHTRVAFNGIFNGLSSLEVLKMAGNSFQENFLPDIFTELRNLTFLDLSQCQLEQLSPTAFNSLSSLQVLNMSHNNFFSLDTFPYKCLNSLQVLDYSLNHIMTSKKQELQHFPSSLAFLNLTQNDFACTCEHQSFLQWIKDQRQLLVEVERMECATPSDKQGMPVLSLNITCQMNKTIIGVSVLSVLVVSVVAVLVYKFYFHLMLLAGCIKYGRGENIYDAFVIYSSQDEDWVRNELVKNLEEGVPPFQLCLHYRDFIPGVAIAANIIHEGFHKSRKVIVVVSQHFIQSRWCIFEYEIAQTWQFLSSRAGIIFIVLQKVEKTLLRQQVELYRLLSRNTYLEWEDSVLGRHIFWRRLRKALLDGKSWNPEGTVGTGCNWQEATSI
Series [4] deals with Receptor-interacting serine/threonine-protein kinase 2 (Homo sapiens) (UniProt O43353). In words: Inhibition of RIP2 (unknown origin) at 10 uM relative to control.
Chain of Receptor-interacting serine/threonine-protein kinase 2 (Homo sapiens) (O43353 whole entry): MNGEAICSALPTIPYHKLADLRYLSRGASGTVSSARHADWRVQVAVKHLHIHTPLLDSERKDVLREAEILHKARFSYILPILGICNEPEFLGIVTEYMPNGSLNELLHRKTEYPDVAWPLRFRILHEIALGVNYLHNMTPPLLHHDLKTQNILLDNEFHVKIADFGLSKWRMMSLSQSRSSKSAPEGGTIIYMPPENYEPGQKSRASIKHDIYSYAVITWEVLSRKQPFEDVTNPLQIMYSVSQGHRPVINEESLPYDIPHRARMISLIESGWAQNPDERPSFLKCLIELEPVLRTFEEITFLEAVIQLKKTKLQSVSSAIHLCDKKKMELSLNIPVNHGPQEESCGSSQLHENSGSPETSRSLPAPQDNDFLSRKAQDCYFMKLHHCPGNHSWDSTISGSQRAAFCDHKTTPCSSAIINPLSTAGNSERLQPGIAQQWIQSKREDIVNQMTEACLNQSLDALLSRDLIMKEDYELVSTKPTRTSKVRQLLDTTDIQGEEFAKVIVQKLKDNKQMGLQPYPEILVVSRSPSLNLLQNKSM
For series [5], the target named is Toll-like receptor 2 (Homo sapiens) (UniProt O60603). In words: Inhibition of human TLR2 at 1 uM relative to control.
Chain of Toll-like receptor 2 (Homo sapiens) (O60603 whole entry): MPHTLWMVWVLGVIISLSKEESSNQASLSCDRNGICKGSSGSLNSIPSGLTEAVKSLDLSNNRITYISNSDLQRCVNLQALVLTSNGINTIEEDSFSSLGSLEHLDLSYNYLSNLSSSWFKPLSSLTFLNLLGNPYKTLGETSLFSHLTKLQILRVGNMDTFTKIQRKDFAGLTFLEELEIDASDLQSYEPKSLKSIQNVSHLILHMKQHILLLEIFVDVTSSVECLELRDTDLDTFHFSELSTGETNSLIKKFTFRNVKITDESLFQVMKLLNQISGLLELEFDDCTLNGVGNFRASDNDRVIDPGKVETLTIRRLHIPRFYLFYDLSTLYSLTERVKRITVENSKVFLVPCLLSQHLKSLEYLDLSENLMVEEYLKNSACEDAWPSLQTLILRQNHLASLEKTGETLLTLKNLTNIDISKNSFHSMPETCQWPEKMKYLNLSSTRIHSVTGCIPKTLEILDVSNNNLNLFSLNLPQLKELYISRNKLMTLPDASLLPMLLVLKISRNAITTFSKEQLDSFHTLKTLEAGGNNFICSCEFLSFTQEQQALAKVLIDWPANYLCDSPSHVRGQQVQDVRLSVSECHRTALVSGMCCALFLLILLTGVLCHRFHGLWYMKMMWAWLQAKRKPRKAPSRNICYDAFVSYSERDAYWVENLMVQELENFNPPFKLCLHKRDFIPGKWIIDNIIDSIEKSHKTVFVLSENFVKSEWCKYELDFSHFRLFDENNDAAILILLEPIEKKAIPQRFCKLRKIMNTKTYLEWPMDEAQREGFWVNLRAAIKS
Series [6] is described as follows: Metabolic stability in mouse liver microsomes assessed as half life at 1.25 uM preincubated for 5 mins followed by NADPH addition measured upto 120 mins by LC-MS/MS analysis. Format: ADME, Microsome. The settings on record: time < 125 min.
The subject of series [7] is THP-1. The series is described as follows: Anti-inflammatory activity in human THP-1 cells assessed as decrease in IL-6 mRNA level at 5 uM pretreated for 1 hr followed by infection with Helicobacter pylori for 2 hrs by RT-qPCR analysis relative to control. The following applies: time 3 hrs. The arrangement: scale not given: the % may be the effect or the level left. Format: functional.

Series [8] in a line: Solubility of compound in phosphate buffer at pH 7.2 to 7.4. The class given is physicochemical.
Series [9] in a line: Half life in C57BL/6 mouse at 2 mg/kg, iv by LC-MS/MS analysis. Format: ADME, organism-based. The settings on record: in vivo.
Series [10] relates to Mus musculus. The series is described as follows: Anti-inflammatory activity in C57BL/6 mouse model of Helicobacter pylori-induced gastric inflammation assessed as inhibition in gastric keratinocyte chemoattractant level pretreated orally with compound upto 24 hrs followed by infection of Helicobacter pylori measured upto 72 hrs. Format: functional, organism-based. The settings on record: dose 12.5-50 mg/kg, route po, time <= 96.0 hrs.

Series [11] concerns the target T3, Nucleotide-binding oligomerization domain-containing protein 1 (Mus musculus) (UniProt Q8BHB0).
T3 sequence (whole entry): T1 sequence (Q8BHB0 whole entry)
The series is described as follows: Antagonist activity at NOD1 in mouse BMDM cells assessed as decrease in phosphorylated JNK level at 0.1 to 1 uM incubated for 1 hr followed by C12-iE-DAP stimulation for 30 mins by Western blot analysis. The class given is cell-based. The settings on record: filed as antagonist, dose 0.1-1 µM, time 1.5 hrs. For orientation: In western blotting, separated proteins are transferred to a membrane and probed.

Series [12] deals with BMDM. The series is described as follows: Anti-inflammatory activity in mouse BMDM cells assessed as decrease in TNF-alpha mRNA level at 1 to 5 uM pretreated for 1 hr followed by infection with Helicobacter pylori for 2 hrs by RT-qPCR analysis. The class given is functional, cell-based. The settings on record: dose 1-5 µM, time 3.0 hrs. For orientation: In qPCR the cycle at which signal appears reflects the starting amount.

Series [13] deals with Nucleotide-binding oligomerization domain-containing protein 2 (Homo sapiens, UniProt Q9HC29). The series is described as follows: Inhibition of human NOD2 at 1 uM relative to control.
Chain of Nucleotide-binding oligomerization domain-containing protein 2 (Q9HC29 whole entry, the tested form may be a part): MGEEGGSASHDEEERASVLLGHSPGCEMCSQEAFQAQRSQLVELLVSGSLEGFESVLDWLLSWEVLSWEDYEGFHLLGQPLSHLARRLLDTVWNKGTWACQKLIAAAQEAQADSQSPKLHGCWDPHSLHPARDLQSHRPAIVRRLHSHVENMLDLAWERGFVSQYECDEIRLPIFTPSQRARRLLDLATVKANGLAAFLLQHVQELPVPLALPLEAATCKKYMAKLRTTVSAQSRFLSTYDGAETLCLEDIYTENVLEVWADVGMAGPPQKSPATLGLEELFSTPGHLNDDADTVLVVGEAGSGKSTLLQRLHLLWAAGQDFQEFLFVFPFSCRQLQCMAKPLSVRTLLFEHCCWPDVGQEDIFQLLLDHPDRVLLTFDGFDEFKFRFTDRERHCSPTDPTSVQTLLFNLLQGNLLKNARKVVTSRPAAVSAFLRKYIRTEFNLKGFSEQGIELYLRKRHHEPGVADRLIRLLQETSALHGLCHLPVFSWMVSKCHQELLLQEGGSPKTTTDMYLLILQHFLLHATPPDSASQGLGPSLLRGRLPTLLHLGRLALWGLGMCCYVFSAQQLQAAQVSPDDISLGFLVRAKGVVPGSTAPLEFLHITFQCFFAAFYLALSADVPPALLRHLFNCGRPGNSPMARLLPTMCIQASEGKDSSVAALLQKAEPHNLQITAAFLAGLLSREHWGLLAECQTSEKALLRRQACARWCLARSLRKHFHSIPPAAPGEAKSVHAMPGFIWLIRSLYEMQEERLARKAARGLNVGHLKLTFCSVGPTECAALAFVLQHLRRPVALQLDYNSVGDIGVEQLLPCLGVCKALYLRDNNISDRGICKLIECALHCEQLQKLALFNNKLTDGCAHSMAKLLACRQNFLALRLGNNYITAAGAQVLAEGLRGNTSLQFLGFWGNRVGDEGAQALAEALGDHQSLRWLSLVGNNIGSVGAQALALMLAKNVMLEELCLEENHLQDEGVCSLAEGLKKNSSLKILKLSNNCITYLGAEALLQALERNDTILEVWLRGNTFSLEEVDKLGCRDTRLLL

The structures appear in SMILES notation. In brackets after ≈: the same amount, converted by molar mass. Activity calls are given as the source filed them. The rule behind the calls is not given here.

The IC50 is the concentration at which inhibition is half-maximal. The inhibition is the drop in the measured response relative to a control, in per cent. One may read the half-life as the time in which the quantity being followed falls by half. The term solubility denotes the dissolved amount per volume that the medium holds. Regarding `CS(=O)(=O)c1ccc2nc(Cl)n(-c3ccc(Cl)c(NS(=O)(=O)c4c(F)cccc4F)c3)c(=O)c2c1`, the IC50 in [1] was found to be 32 nM; in series [2], 0.8 nM. Moreover, the inhibition in series [3] was 10%; in [4], 11.4%; in series [5], 12.8%; in series [10], “Dose-dependent-effect; Exhibited Superior Efficacy Compared To Compound C”; in series [13] it was 36.9%. Further, the half-life at 1.25 µM in series [6] came out at 30.1 min. In addition, the Activity in series [7] is listed as 100%. Also, the concentration in solution in series [8] (solubility) was 44.6 µg/mL (≈ 79.6 µM). This compound also returned a t1/2 in series [9] of 3.9 min. The inhibition result in [11] is “Active”. The outcome in series [12] was Active.
For `N#Cc1ccc2nc(Cl)n(-c3ccc(Cl)c(NS(=O)(=O)c4c(F)cccc4F)c3)c(=O)c2c1`, the concentration for half-maximal inhibition (IC50) in [1] was determined as 54 nM; in series [2], 2.2 nM. For the same compound, the inhibition in [3] is < 10%; in series [4], < 10%; in series [5], 8.5%; in series [13] it was < 10%. Further, in [6], the half-life at 1.25 µM was 26.5 min. In addition, the solubility in series [8] was 48.8 µg/mL (≈ 96.2 µM).
As to `CS(=O)(=O)c1ccc2nc(Cl)n(-c3ccc(Cl)c(NS(=O)(=O)c4ccc5ncsc5c4)c3)c(=O)c2c1`, the IC50 came to 58 nM in series [1] and 0.9 nM in series [2]. Moreover, the inhibition in series [3] stood at 15.8%; in series [4], 10.5%; in series [5], 52.3%; in series [13], 16.1%. In addition, the half-life at 1.25 µM in [6] turned out to be 22.8 min. The solubility in series [8] stood at 21.5 µg/mL (≈ 37 µM).
